Results reported in US20140308733A1, “METHOD FOR INDUCING GERMINATION OF SPORE FORMING BACTERIUM” (CALPIS CO., LTD., priority 2011, published 2014).

Key:
Type in all cases: cell-based
[1] = tested on: Bacillus subtilis C-3102 (FERM BP-1096); assay: Influence of the concentration of germination inducer on turbidity change (Example 2); conditions: for turbidity (630 nm): 37° C., 150 rpm
Description: Next, 500 μL aliquots of bacterial suspension of Bacillus subtilis C-3102 (FERM BP-1096) used in Example 1 were mixed with 500 μL of ferulic acid, or vanillic acid solutions described above, and the mixtures were adjusted to ferulic acid (10 to 600 ppm), or vanillic acid (10 to 1800 ppm) concentrations set forth in Table 2. The concentrations of ferulic acid at the reaction initiation were 10, 100, 300, and 600 ppm, and the concentrations of vanillic acid at the reaction initiation were 10, 100, 300, 600, 1200, and 1800 ppm.
As same as Example 1, defining the time point of mixing the bacterial suspension with the solution of ferulic acid, or vanillic acid as the reaction initiation (0 min), and continuing shaking (150 rpm) at 37° C., the absorbance (630 nm) was measured at 10, 20, 30, 40, 50, 60, 90, 120, and 180 min after the reaction initiation.

[2] = tested on: Bacillus licheniformis (NBRC 14206); assay: Germination induction, change of turbidity (630 nm) of spore suspension; conditions: 300 ppm; for turbidity (630 nm): 37° C., 150 rpm
Description: (§1) It is possible to determine whether spores have germinated, after measuring an OD 630 value (turbidity at 630 nm) of the liquid culture, based on decrease in the value (Literature: Microbiology, (1950), 4, 3, 330-338). Briefly, bacterial cells after culturing are washed with distilled water and diluted with distilled water to OD 630=1.0, which is then mixed with an equal volume of a germination induction solution, and the turbidity at 630 nm is measured by a UV spectrophotometer at room temperature.
(§2) TS culture media (Difco, Trypticase Soy Broth) were inoculated respectively with 11 strains listed in Table 1 and cultured at 50° C. with respect to Geobacillus stearothermophilus NBRC13737 and Aeribacillus pallidus TK6004 (FERM BP-08597), and at 37° C. with respect to the other 9 strains, until respective colonies were established. Then with respect to each of 11 strains, a loop full of a single colony was scratched by a platinum loop and suspended in 500 μL of sterilized water. In 1000 g of water was dissolved 8.0 g of a nutrient agar culture medium (Difco, Nutrient Broth), followed by high pressure steam sterilization (121° C., 15 min) to prepare a plate medium. The nutrient agar culture medium was smeared with each 100 μL of the suspension and cultured at 37° C. for 3 days.
(§3) Then, bacterial cells were suspended using a platinum loop in 500 μL of sterilized water, and the bacterial suspension was subjected to a heat shock at 65° C. for 35 min. Each 100 μL of the heat-shocked bacterial suspension and a not-heat-shocked bacterial suspension were smeared on the TS culture media respectively and cultured at 50° C. or 37° C. for 1 day.
(§4) After confirming the spore formation, the bacterial cells were collected by a bacteria spreader, suspended in 10 mL of sterilized distilled water, and then centrifuged (8340×g, 4° C., 15 min). The supernatant was removed and thereafter the bacterial cells were washed twice with 10 mL of sterilized water. After washing, the bacterial cells were suspended in 5 mL of sterilized water, and the suspension was filtrated by sterilized Kimwipes. The filtrate was centrifuged (8340×g, 4° C., 15 min) to remove the supernatant, and the rest was adjusted to the turbidity (at 630 nm) of 1.0 with sterilized water.
(§5) After dissolving with stirring using a stirring rod with a propeller, filtration sterilization (0.45 μm filter) was conducted to prepare each 600 ppm-solution.
(§6) Five hundred (500) μL of each solution and 500 μL of each bacterial spore suspension were mixed. […] Defining the time point of mixing as the reaction initiation (0 min), and continuing shaking (150 rpm) at 37° C., the turbidity (630 nm) was measured at 10, 20, 30, 40, 50, 60, 90, 120, and 180 min after the reaction initiation.
(§7) Since the turbidity at 630 nm decreases by germination of spores, it has been known that the turbidity at 630 nm can be used to determine the germination rate.

[3] = tested on: Bacillus licheniformis (NBRC 12200); assay: as above; conditions: 300 ppm; for turbidity (630 nm): 37° C., 150 rpm
Description: as §1, §2, §3, §4, §5, §6, §7

[4] = 0 min after reaction initiation
[5] = 10 min after reaction initiation
[6] = 20 min after reaction initiation
[7] = 30 min after reaction initiation
[8] = 40 min after reaction initiation
[9] = 50 min after reaction initiation
[10] = 60 min after reaction initiation
[11] = 90 min after reaction initiation
[12] = 120 min after reaction initiation
[13] = 180 min after reaction initiation

COc1cc(/C=C/C(=O)O)ccc1O [Ferulic acid, ferulic acid]
turbidity (630 nm) ([1]; ferulic acid 10 ppm, 0 min after reaction initiation): 0.584
turbidity (630 nm) ([1]; ferulic acid 10 ppm, 10 min after reaction initiation): 0.563
turbidity (630 nm) ([1]; ferulic acid 10 ppm, 20 min after reaction initiation): 0.553
turbidity (630 nm) ([1]; ferulic acid 10 ppm, 30 min after reaction initiation): 0.544
turbidity (630 nm) ([1]; ferulic acid 10 ppm, 40 min after reaction initiation): 0.533
turbidity (630 nm) ([1]; ferulic acid 10 ppm, 50 min after reaction initiation): 0.519
turbidity (630 nm) ([1]; ferulic acid 10 ppm, 60 min after reaction initiation): 0.507
turbidity (630 nm) ([1]; ferulic acid 10 ppm, 90 min after reaction initiation): 0.488
turbidity (630 nm) ([1]; ferulic acid 10 ppm, 120 min after reaction initiation): 0.447
turbidity (630 nm) ([1]; ferulic acid 10 ppm, 180 min after reaction initiation): 0.353
turbidity (630 nm) ([1]; ferulic acid 100 ppm, 0 min after reaction initiation): 0.583
turbidity (630 nm) ([1]; ferulic acid 100 ppm, 10 min after reaction initiation): 0.565
turbidity (630 nm) ([1]; ferulic acid 100 ppm, 20 min after reaction initiation): 0.556
turbidity (630 nm) ([1]; ferulic acid 100 ppm, 30 min after reaction initiation): 0.53
turbidity (630 nm) ([1]; ferulic acid 100 ppm, 40 min after reaction initiation): 0.52
turbidity (630 nm) ([1]; ferulic acid 100 ppm, 50 min after reaction initiation): 0.500
turbidity (630 nm) ([1]; ferulic acid 100 ppm, 60 min after reaction initiation): 0.484
turbidity (630 nm) ([1]; ferulic acid 100 ppm, 90 min after reaction initiation): 0.448
turbidity (630 nm) ([1]; ferulic acid 100 ppm, 120 min after reaction initiation): 0.383
turbidity (630 nm) ([1]; ferulic acid 100 ppm, 180 min after reaction initiation): 0.247
turbidity (630 nm) ([1]; ferulic acid 300 ppm, 0 min after reaction initiation): 0.579
turbidity (630 nm) ([1]; ferulic acid 300 ppm, 10 min after reaction initiation): 0.56
turbidity (630 nm) ([1]; ferulic acid 300 ppm, 20 min after reaction initiation): 0.547
turbidity (630 nm) ([1]; ferulic acid 300 ppm, 30 min after reaction initiation): 0.530
turbidity (630 nm) ([1]; ferulic acid 300 ppm, 40 min after reaction initiation): 0.520
turbidity (630 nm) ([1]; ferulic acid 300 ppm, 50 min after reaction initiation): 0.499
turbidity (630 nm) ([1]; ferulic acid 300 ppm, 60 min after reaction initiation): 0.466
turbidity (630 nm) ([1]; ferulic acid 300 ppm, 90 min after reaction initiation): 0.422
turbidity (630 nm) ([1]; ferulic acid 300 ppm, 120 min after reaction initiation): 0.354
turbidity (630 nm) ([1]; ferulic acid 300 ppm, 180 min after reaction initiation): 0.22
turbidity (630 nm) ([1]; ferulic acid 600 ppm, 0 min after reaction initiation): 0.586
turbidity (630 nm) ([1]; ferulic acid 600 ppm, 10 min after reaction initiation): 0.552
turbidity (630 nm) ([1]; ferulic acid 600 ppm, 20 min after reaction initiation): 0.545
turbidity (630 nm) ([1]; ferulic acid 600 ppm, 30 min after reaction initiation): 0.526
turbidity (630 nm) ([1]; ferulic acid 600 ppm, 40 min after reaction initiation): 0.515
turbidity (630 nm) ([1]; ferulic acid 600 ppm, 50 min after reaction initiation): 0.506
turbidity (630 nm) ([1]; ferulic acid 600 ppm, 60 min after reaction initiation): 0.477
turbidity (630 nm) ([1]; ferulic acid 600 ppm, 90 min after reaction initiation): 0.447
turbidity (630 nm) ([1]; ferulic acid 600 ppm, 120 min after reaction initiation): 0.379
turbidity (630 nm) ([1]; ferulic acid 600 ppm, 180 min after reaction initiation): 0.246
germination induction versus concentration ([1]; ferulic acid of 10 to 600 ppm): germination was inducted at any concentration to the same extent
turbidity (630 nm) [2, 4]: 0.589
turbidity (630 nm) [2, 5]: 0.583
turbidity (630 nm) [2, 6]: 0.573
turbidity (630 nm) [2, 7]: 0.565
turbidity (630 nm) [2, 8]: 0.553
turbidity (630 nm) [2, 9]: 0.547
turbidity (630 nm) [2, 10]: 0.530
turbidity (630 nm) [2, 11]: 0.498
turbidity (630 nm) [2, 12]: 0.474
turbidity (630 nm) [2, 13]: 0.463
germination confirmed by turbidity decrease ([2]; up to 180 min): the turbidity decreased
turbidity (630 nm) [3, 4]: 0.601
turbidity (630 nm) [3, 5]: 0.569
turbidity (630 nm) [3, 6]: 0.563
turbidity (630 nm) [3, 7]: 0.543
turbidity (630 nm) [3, 8]: 0.536
turbidity (630 nm) [3, 9]: 0.517
turbidity (630 nm) [3, 10]: 0.503
turbidity (630 nm) [3, 11]: 0.460
turbidity (630 nm) [3, 12]: 0.417
turbidity (630 nm) [3, 13]: 0.334
germination confirmed by turbidity decrease ([3]; up to 180 min): the turbidity decreased
